Results: the supplement of paper PMC12137928
Where a name gives a salt, the structure may show the parent alone.

How the values were obtained:
HCT116 [1] = settings: 72 h
Summary of the method: (§1)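 For IC50 and maximal efficacy, four-parameter Hill fits were used. Input values were CellTiter-Glo luminescence from HCT116 cells seeded at 250 per well in 1536-well plates, normalized to vehicle (0%) and positive control (-100%). Pattern correction followed normalization.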

HCT116 [2] = assay: efficacy (maximum % inhibition of viability vs DMSO); higher = more cytotoxic; settings: 72 h
Summary of the method: as §1

Row | SMILES | IC50 cell viability (HCT116 [1]; ICRF193 0 nM) [µM] | IC50 cell viability (HCT116 [1]; ICRF193 200 nM) [µM] | efficacy (HCT116 [2]; ICRF193 0 nM) [%] | efficacy (HCT116 [2]; ICRF193 200 nM) [%]
1 | CC[C@@]1([C@@H]2O[C@@H]([C@H]3O[C@@](O)(CO)[C@H](C)C[C@@H]3C)C[C@@H]2C)CC[C@H]([C@]2(C)CC[C@]3(C[C@H](O)[C@@H](C)[C@@H]([C@@H](C)[C@@H](OC)[C@H](C)C(=O)O)O3)O2)O1 [Monensin sodium salt] | 3.18 | 3.18 | 81.1 | 83.4
2 | C[C@](C#N)(COc1cc(C#N)ccc1C(F)(F)F)NC(=O)c1ccc(SC(F)(F)F)cc1 [Monepantel] | 23.1 | 20.6 | 98.1 | 90.3
3 | O=C1NC2CCCCN2C12CCN(CCCN1c3ccccc3CCc3ccc(Cl)cc31)CC2 (configuration not stated) [Mosapramine] | 20.6 | 23.1 | 125 | 129
4 | CO/N=C1\C[C@]2(C[C@@H]3C[C@@H](C/C=C(\C)C[C@@H](C)/C=C/C=C4\CO[C@@H]5[C@H](O)C(C)=C[C@@H](C(=O)O3)[C@]45O)O2)O[C@H](/C(C)=C/C(C)C)[C@H]1C [Moxidectin] | 20.6 | 16.4 | 128 | 111
5 | COc1c(C)c2c(c(O)c1C/C=C(\C)CCC(=O)OCCN1CCOCC1)C(=O)OC2 [Mycophenolate mofetil] | 1.83 | 1.64 | 74 | 74.4
6 | COc1c(C)c2c(c(O)c1C/C=C(\C)CCC(=O)O)C(=O)OC2 [Mycophenolic acid] | 1.83 | 2.59 | 70.7 | 92.4
7 | Cc1ccc2nc(N)[nH]c(=O)c2c1Sc1ccncc1 [NOLATREXED HCL] | > 45.8 | 20.6 | – | 45.1
8 | CN(C/C=C/c1ccccc1)Cc1cccc2ccccc12 [Naftifine hydrochloride] | 32.6 | 29.1 | 49.9 | 54
9 | COc1ccccc1N1CCN(CC(O)COc2cccc3ccccc23)CC1 (configuration not stated) [Naftopidil] | > 45.8 | 23.1 | – | 62.6
10 | C[C@]12CC[C@H]3[C@@H](CCC4=CC(=O)CC[C@@H]43)[C@@H]1CC[C@@H]2OC(=O)CCc1ccco1 [Nandrolone furylpropionate] | 29.1 | 29.1 | 93.3 | 88
11 | CC[C@@H](C(=O)O)[C@@H]1O[C@@H]([C@@H](C)[C@H](O)[C@H](C)C(=O)[C@H](CC)[C@H]2O[C@]3(C=C[C@@H](O)[C@]4(CC[C@@](C)([C@H]5CC[C@](O)(CC)[C@H](C)O5)O4)O3)[C@H](C)C[C@@H]2C)[C@@H](C)C[C@@H]1C [Narasin] | 3.66 | 2.91 | 80.5 | 94.5
12 | CCc1nn(CCCN2CCN(c3cccc(Cl)c3)CC2)c(=O)n1CCOc1ccccc1 [Nefazodone hydrochloride] | 14.6 | 18.3 | 42.5 | 63.8
13 | Cc1c(O)cccc1C(=O)N[C@@H](CSc1ccccc1)[C@H](O)CN1C[C@H]2CCCC[C@H]2C[C@H]1C(=O)NC(C)(C)C [Nelfinavir mesylate] | 29.1 | 20.6 | 104 | 106
14 | COc1cccc2c1C(=O)c1c(O)c3c(c(O)c1C2=O)C[C@@](O)(C(=O)CO)C[C@@H]3O[C@H]1C[C@H](N2CCO[C@H](OC)C2)[C@H](O)[C@H](C)O1 [Nemorubicin] | 0.0259 | 0.0291 | 68.6 | 76.1
15 | Cc1ccc(C(=O)OCc2ccc([C@@H](CN)C(=O)Nc3ccc4cnccc4c3)cc2)c(C)c1 [Netarsudil] | 14.2 | 8.96 | 104 | 94.1
16 | CCCCCOc1ccccc1/C(=C\SC)n1ccnc1 [Neticonazole] | 16.4 | 16.4 | 48.1 | 51.1
17 | COC(=O)C1=C(C)NC(C)=C(C(=O)OCCN(C)Cc2ccccc2)C1c1cccc([N+](=O)[O-])c1 (configuration not stated) [Nicardipine] | 23.1 | 20.6 | 61.1 | 69.1
18 | O=C(Nc1ccc([N+](=O)[O-])cc1Cl)c1cc(Cl)ccc1O [Niclosamide] | 0.712 | 0.712 | 88.5 | 82.8
19 | COC(=O)C1=C(C)NC(C)=C(C(=O)OC)C1c1ccccc1[N+](=O)[O-] [Nifedipine] | 23.1 | 23.1 | 94.7 | 90.5
20 | COC(=O)c1ccc2c(c1)NC(=O)/C2=C(\Nc1ccc(N(C)C(=O)CN2CCN(C)CC2)cc1)c1ccccc1 [Nintedanib] | > 45.8 | 10.3 | – | 53.6
21 | COC(=O)C1=C(C)NC(C)=C(C(=O)OCC(C)C)C1c1ccccc1[N+](=O)[O-] (configuration not stated) [Nisoldipine] | 18.3 | 18.3 | 55.8 | 77.8

Row | SMILES | IC50 cell viability (HCT116 [1]; ICRF193 0 nM) [µM] | IC50 cell viability (HCT116 [1]; ICRF193 200 nM) [µM] | efficacy (HCT116 [2]; ICRF193 0 nM) [%] | efficacy (HCT116 [2]; ICRF193 200 nM) [%]
22 | CC(=O)Oc1ccccc1C(=O)Nc1ncc([N+](=O)[O-])s1 [Nitazoxanide] | 13 | 18.3 | 104 | 122
23 | Cc1ccc([N+](=O)[O-])[c]2c1[O][Hg]2 [Nitromersol] | 3.26 | 5.8 | 88.9 | 91.5
24 | O=[N+]([O-])c1ccc(Oc2ccc(N=C=S)cc2)cc1 [Nitroscanate] | 29.1 | 29.1 | 82.7 | 85.5
25 | CC(CCc1ccccc1)NC(C)C(O)c1ccc(O)cc1 (configuration not stated) [Nylidrin] | > 45.8 | 16.4 | – | 40.7
26 | Oc1cccc2cccnc12 [OXYQUINOLINE HEMISULFATE] | 23.1 | 18.3 | 86.7 | 88.8
27 | COC(=O)C[C@](O)(CCCC(C)(C)O)C(=O)O[C@@H]1C(OC)=C[C@]23CCCN2CCc2cc4c(cc2[C@H]13)OCO4 [Omacetaxine mepesuccinate] | 0.0651 | 0.0461 | 65.6 | 66.3
28 | O=C(N[C@H]1CCS[C@H]2CCC[C@@H](C(=O)O)N2C1=O)[C@@H](S)Cc1ccccc1 [Omapatrilat] | > 45.8 | 6.51 | – | 86.5
29 | C/C(=C(/OCCOc1ccc(Cl)cc1)c1ccc(Cl)cc1Cl)n1ccnc1 [Omoconazole] | 18.3 | 23.1 | 41.1 | 62.4
30 | Cc1c(Cl)c(C)[n+]([O-])c(Cl)c1-c1noc(-c2cc(O)c(O)c([N+](=O)[O-])c2)n1 [Opicapone] | > 45.8 | 29.1 | – | 98.7
31 | COc1ccc2c(c1)OC(C)(C)C(c1ccccc1)C2c1ccc(OCCN2CCCC2)cc1 (configuration not stated) [Ormeloxifene] | 20.6 | 18.3 | 91 | 81.5
32 | C=CC(=O)Nc1cc(Nc2nccc(-c3cn(C)c4ccccc34)n2)c(OC)cc1N(C)CCN(C)C [Osimertinib mesylate] | 23.1 | 16.4 | 142 | 101
33 | C[C@@H]1O[C@@H](O[C@H]2C[C@@H](O)[C@]3(CO)[C@H]4[C@H](O)C[C@]5(C)[C@@H](C6=CC(=O)OC6)CC[C@]5(O)[C@@H]4CC[C@]3(O)C2)[C@H](O)[C@H](O)[C@H]1O [Ouabain octahydrate] | 0.116 | 0.13 | 104 | 84.4
34 | O=c1[nH]c2ccccc2n1CCCN1CCN(C(c2ccccc2)c2ccccc2)CC1 [Oxatomide] | 18.3 | 29.1 | 73.2 | 84.5
35 | NC(=O)N1c2ccccc2CC(=O)c2ccccc21 [Oxcarbazepine] | 18.3 | > 45.8 | 52.3 | –
36 | CN(C(=O)CN(CCO)CC(=O)N(C)C(C)(C)Cc1ccccc1)C(C)(C)Cc1ccccc1 [Oxethazaine] | 16.4 | 13 | 104 | 97.5
37 | COC(=O)Nc1nc2cc([S+]([O-])c3ccccc3)ccc2[nH]1 (configuration not stated) [Oxfendazole] | 14.6 | 2.06 | 44.2 | 49.7
38 | CCCOc1ccc2[nH]c(NC(=O)OC)nc2c1 [Oxibendazole] | 1.3 | 0.183 | 43 | 40.1
39 | Clc1ccc(CO/N=C(\Cn2ccnc2)c2ccc(Cl)cc2Cl)c(Cl)c1 [Oxiconazole nitrate] | 29.1 | 20.6 | 104 | 101
40 | CCCCC1C(=O)N(c2ccccc2)N(c2ccc(O)cc2)C1=O (configuration not stated) [Oxyphenbutazone] | 11.6 | 9.2 | 103 | 55.1
41 | CCOC(=O)O[C@]1(C(=O)COC(=O)CC)CC[C@H]2[C@@H]3CCC4=CC(=O)C=C[C@]4(C)[C@H]3[C@@H](O)C[C@@]21C [PREDNICARBATE] | 16.4 | 29.1 | 108 | 93.8
